Reference: patent publication US20190269705A1, “METHODS AND MATERIALS FOR TREATING GRAFT VERSUS HOST DISEASE” (Regents of the University of Minnesota, priority 2017, published 2019)
Entries after “also recorded” stand apart in the source; their conditions may differ.

How the values were obtained:
Th1 cells [1] = test: ATAC-Seq chromatin accessibility, Th1; format: cell-based, mouse; settings: Th1, 500 nM CB839, day 5
Description: ATAC-Seq: Crude nuclei pellets were isolated as described elsewhere (see, e.g., Buenrostro et al., 2013 Nat Meth. 10(12):1213-1218) with modifications. Briefly, naïve CD4 T cells were skewed to Th1 and Th17 subsets in vitro with vehicle or in the presence of 500 nM CB839. At Day 5, T cells were re-isolated for CD4+ cells using Miltenyi CD4+ negative selection kit (Cat #: 130-104-454). 1×10^5 cells were removed for nuclei extraction in ATAC-Seq lysing buffer. Cells were exposed to Tn5+ adaptor proteins from Nextera DNA for 30 min at 37° C. and immediately placed on ice. Transposed eluate was amplified via PCR using Nextera DNA preparation kit (Illumina, Cat #: FC-121-1030), NEBNext High-fidelity 2× PCR mix (New England Labs, Cat #: M0541), and multiplexed (Illumina, Cat #: FC-121-1011). Samples were purified using Zymo DNA cleanup kit (Cat #: D4011). QC of samples was run on bioanalyzer before being sent for sequencing. RNA-Seq: Th1 and Th17 cells skewed with or without CB839 were isolated as previously described and total RNA extracted (Qiagen RNEasy Mini kit, Cat #: 74104). RNA was sent to VANTAGE core at Vanderbilt University and sequenced on HiSeq 2500. n=3 for each sample was analyzed. Samples were analyzed using the R program DESeq2. GSEA was performed using MSigDB. […]

Th1 cells [2] = test: RNA-Seq and gene set enrichment analysis, Th1; format: cell-based, mouse
Description: ATAC-Seq: Crude nuclei pellets were isolated as described elsewhere (see, e.g., Buenrostro et al., 2013 Nat Meth. 10(12):1213-1218) with modifications. Briefly, naïve CD4 T cells were skewed to Th1 and Th17 subsets in vitro with vehicle or in the presence of 500 nM CB839. At Day 5, T cells were re-isolated for CD4+ cells using Miltenyi CD4+ negative selection kit (Cat #: 130-104-454). 1×10^5 cells were removed for nuclei extraction in ATAC-Seq lysing buffer. Cells were exposed to Tn5+ adaptor proteins from Nextera DNA for 30 min at 37° C. and immediately placed on ice. Transposed eluate was amplified via PCR using Nextera DNA preparation kit (Illumina, Cat #: FC-121-1030), NEBNext High-fidelity 2× PCR mix (New England Labs, Cat #: M0541), and multiplexed (Illumina, Cat #: FC-121-1011). Samples were purified using Zymo DNA cleanup kit (Cat #: D4011). QC of samples was run on bioanalyzer before being sent for sequencing. RNA-Seq: Th1 and Th17 cells skewed with or without CB839 were isolated as previously described and total RNA extracted (Qiagen RNEasy Mini kit, Cat #: 74104). RNA was sent to VANTAGE core at Vanderbilt University and sequenced on HiSeq 2500. n=3 for each sample was analyzed. Samples were analyzed using the R program DESeq2. GSEA was performed using MSigDB.
Th1 and Th17 cells were skewed with or without CB839 over 5 days and total RNA extracted for RNAseq (Cat #: 74104). RNA was sent to VANderbilt Technologies for Advanced GEnomics (VANTAGE) core at Vanderbilt University. Libraries were prepared using 50 ng of total RNA using the NEBNext Ultra RNA Library Kit for Illumina (Cat #E7530) and sequenced on HiSeq3000 at 75 bp paired-end. Each sample was analyzed in triplicate. Sequencing reads were aligned against the Mouse GENCODE genome, Version M14 (Jan. 2017 freeze, GRCm38, Ensembl 89) using the Spliced Transcripts Alignment to a Reference (STAR) software (ref: 26187010 and 23104886). Reads were preprocessed and index using SAMtools (ref: 19505943). Mapped reads were assigned to gene features and quantified using featureCounts (ref: 24227677). Normalization and differential expression was performed using DESeq2 (Love et al., 2014). Skewed lymphocytes with and without CB839 were compared in both Th1 and Th17 groups. […] The top 200 most differentially expressed genes were used for unsupervised hierarchical cluster analysis and visualized using heatmap representations.

[3] = Th1 Cells: Decreased Pathways, HALLMARK_ALLOGRAFT_REJECTION
[4] = Th1 Cells: Decreased Pathways, HALLMARK_ANGIOGENESIS
[5] = Th1 Cells: Decreased Pathways, HALLMARK_APICAL_JUNCTION
[6] = Th1 Cells: Decreased Pathways, HALLMARK_APOPTOSIS
[7] = Th1 Cells: Decreased Pathways, HALLMARK_COMPLEMENT
[8] = Th1 Cells: Decreased Pathways, HALLMARK_EPITHELIAL_MESENCHYMAL_TRANSITION
[9] = Th1 Cells: Decreased Pathways, HALLMARK_ESTROGEN_RESPONSE_EARLY
[10] = Th1 Cells: Decreased Pathways, HALLMARK_INFLAMMATORY_RESPONSE
[11] = Th1 Cells: Decreased Pathways, HALLMARK_INTERFERON_GAMMA_RESPONSE
[12] = Th1 Cells: Decreased Pathways, HALLMARK_KRAS_SIGNALING_UP
[13] = Th1 Cells: Decreased Pathways, HALLMARK_UV_RESPONSE_DN
[14] = Th1 Cells: Increased Pathways, HALLMARK_DNA_REPAIR
[15] = Th1 Cells: Increased Pathways, HALLMARK_E2F_TARGETS
[16] = Th1 Cells: Increased Pathways, HALLMARK_ESTROGEN_RESPONSE_LATE
[17] = Th1 Cells: Increased Pathways, HALLMARK_G2M_CHECKPOINT
[18] = Th1 Cells: Increased Pathways, HALLMARK_GLYCOLYSIS
[19] = Th1 Cells: Increased Pathways, HALLMARK_IL2_STAT5_SIGNALING
[20] = Th1 Cells: Increased Pathways, HALLMARK_MITOTIC_SPINDLE
[21] = Th1 Cells: Increased Pathways, HALLMARK_MTORC1_SIGNALING
[22] = Th1 Cells: Increased Pathways, HALLMARK_MYC_TARGETS_V1

## O=C(Cc1cccc(OC(F)(F)F)c1)Nc1ccc(CCCCc2nnc(NC(=O)Cc3ccccn3)s2)nn1 [CB839]
Th1 cells [1]
  genes with regions of altered chromatin accessibility: more genes with regions of increased accessibility than genes with decreased accessibility
Th1 cells [2]; Th1
  Pik3ip1 expression by RNA-Seq: most strongly downregulated
Th1 cells [2]; Th1, CB839-treated
  compensation by GLS2 at the RNA level: No compensation by GLS2 at the RNA level
Th1 cells [2]; Th1, CB839 vs vehicle
  direction of the 200 genes with the most altered expression: the majority showed increased expression
  gene set enrichment: cell cycle, mTORC1, Myc, IL2 signaling pathways: upregulation of cell cycle, mTORC1, Myc, IL2 signaling, and glycolysis pathways; also recorded: upregulation of specific pathways including those related to cell cycle, mTORC1, Myc, and IL2 signaling
Th1 cells [2]; [3]
  # Genes in Overlap (k): 17
  k/K: 0.085
Th1 cells [2]; [4]
  # Genes in Overlap (k): 6
  k/K: 0.1667
Th1 cells [2]; [5]
  # Genes in Overlap (k): 16
  k/K: 0.08
Th1 cells [2]; [6]
  # Genes in Overlap (k): 13
  k/K: 0.0807
Th1 cells [2]; [7]
  # Genes in Overlap (k): 18
  k/K: 0.09
Th1 cells [2]; [8]
  # Genes in Overlap (k): 13
  k/K: 0.065
Th1 cells [2]; [9]
  # Genes in Overlap (k): 13
  k/K: 0.065
Th1 cells [2]; [10]
  # Genes in Overlap (k): 18
  k/K: 0.09
Th1 cells [2]; [11]
  # Genes in Overlap (k): 14
  k/K: 0.07
Th1 cells [2]; [12]
  # Genes in Overlap (k): 20
  k/K: 0.1
Th1 cells [2]; [13]
  # Genes in Overlap (k): 11
  k/K: 0.0764
Th1 cells [2]; [14]
  # Genes in Overlap (k): 28
  k/K: 0.1867
Th1 cells [2]; [15]
  # Genes in Overlap (k): 135
  k/K: 0.675
Th1 cells [2]; [16]
  # Genes in Overlap (k): 30
  k/K: 0.15
Th1 cells [2]; [17]
  # Genes in Overlap (k): 101
  k/K: 0.505
Th1 cells [2]; [18]
  # Genes in Overlap (k): 34
  k/K: 0.17
Th1 cells [2]; [19]
  # Genes in Overlap (k): 37
  k/K: 0.185
Th1 cells [2]; [20]
  # Genes in Overlap (k): 56
  k/K: 0.28
Th1 cells [2]; [21]
  # Genes in Overlap (k): 47
  k/K: 0.235
Th1 cells [2]; [22]
  # Genes in Overlap (k): 43
  k/K: 0.215
